Source: patent US4454065A, “Oligopeptide prodrugs” (SmithKline Beckman Corporation, priority 1983, dated 1984)
≈ marks a conversion by molar mass, not a printed value. Where two headings read alike, the source gives them in different places.

What was measured:
[1] = system: C. albicans; assay: Minimum inhibitory concentration, two-fold broth dilution (Method/Test B); assay type: cell-based, Candida albicans
Protocol: (§1) B. Fungi [Minimum inhibitory […] (MIC)]:
(§2) The minimum inhibitory concentration of the test compound was determined by two-fold broth dilution tests in yeast carbon base medium, containing 200 μg/ml of sodium glutamate. The compounds were diluted from […] to 0.25 μg/ml and the test medium was inoculated with a suspension of C. albicans grown in the same medium for 15 hours at 37°. The final inoculum sizes in the tests we approximately 10^4 cfu/ml and 10^3 cfu/ml. The tubes were incubated at 37° for 24 and 48 hours and observed for inhibition.

[2] = system: Candida albicans; assay: Disk diffusion method, fungi (Method/Test A); assay type: cell-based; conditions: for zone (Test A, disk diffusion; quantity not given): C. albicans B-311; for zone size: C. albicans
Protocol: (§3) A. Fungi (Disk diffusion method):
(§4) Candida albicans strains B-311 and BC 759, obtained from Smith Kline and French Laboratory Culture Collection were grown in a trypticase soy broth at 28° for 7 hours. The seeded plates, with this medium containing 1.5% agar, were prepared by inoculating 1 ml of the inoculum in 1 l. of yeast-carbon base medium, containing 200 μg/ml of lysine or glutamate as a sole source of nitrogen.

[3] = system: E. coli M. 2626; assay: Disk diffusion method, bacteria (Method C); assay type: cell-based; conditions: Escherichia coli
Excerpt: C. Bacteria (Disk diffusion method): A method similar to A above but using E. coli was used which employs a M-9 medium (basic salts with ammonium ion as the nitrogen source and glucose as the carbon source).

[4] = system: Nematospiroides dubius; conditions: mice, subcutaneously 15 mg/kg for eight days; compared with albendazole
[5] = system: Fasciola hepatica; conditions: mice, subcutaneously 15 mg/kg for eight days; compared with albendazole
[6] = system: Caenorhabditis elegans; conditions: concentrations of 10 and 100 μg/ml
[7] = system: representative fungal and bacterial organisms; assay: Biological screen described in the utility example; assay type: cell-based; conditions: product found to be not completely deblocked
Protocol: A prototypal compound, L-alanyl-2-(5-fluorouracil-2-yl)-L-glycine, was evaluated against representative fungal and bacterial organisms.
as §3, §4, §1, §2
C. Bacteria (Disk diffusion method):
A method similar to A above but using E. coli was used which employs a M-9 medium (basic salts with ammonium ion as the nitrogen source and glucose as the carbon source).

[8] = system: hog kidney leucine aminopeptidase; assay: Enzyme catalyzed warhead release (Ellman reagent, 412 nm); assay type: biochemical; conditions: for λ(412) absorbance: enzyme added
Protocol: (§5) The release was maintained at a linear rate over the observation period (5 min). […] This observation is consistent with literature reports of the optimal pH necessary for the efficacy of this enzyme.
(§6) These observations were obtained by colorimetric assay, which involves the reaction between a free sulfhydryl group and 5,5'-dithio-bis(2-nitrobenzoic acid), the Ellman reagent, to produce a yellow color as follows: [drawing 12]
(§7) The peptide from Example 4 was dissolved in 4 mM of phosphate buffer solution (pH 7) containing in Ellman reagent at a level of 4 mg/ml to produce a 1 mM solution of the peptide. The resulting mixture was monitored using a spectrophotometer at a wavelength of 412 nm. To 1 ml of this solution was added 100 μg of hog kidney leucine aminopeptidase (Sigma) and the enzymatic hydrolysis was continuously monitored at 412 nm.
(§8) Reaction mixture contained 1 mM peptide, Ellman's reagent 4 mg/ml, phosphate buffer 4 mM (pH 7).

[9] = system: hog kidney leucine aminopeptidase; assay: as above; assay type: biochemical; conditions: pH 7.5
[10] = Stability in aqueous phosphate buffer, spontaneous warhead release (Ellman reagent, 412 nm); assay type: physicochemical; conditions: for λ(412) absorbance: before enzyme
Protocol: as §5, §6, §7, §8

[11] = molecular target: aminopeptidase M (Homo sapiens, UniProt P15144); assay: Detector peptide as enzyme substrate, aminopeptidase M; assay type: biochemical
Excerpt: (§9) The compounds of formula I or IA in which W is a C1-6 -alkylthio, a functionalized C1-6 -alkylthio for example a C1-6 -aminoalkylthio or a phenylthio as defined above by formula II are of particular utility for detecting protease/peptidase activity in biological systems. For example, the compounds are more sensitive chromogenic detectors of protease activity in biological liquids, such as serum, than is leucine p-nitroanilide. This utility depends on the release, by protease action, of the mercaptan, H-S-R^2, which is assayed quantitatively by colorimetry using Ellman's reagent as described in the examples.

[12] = molecular target: leucine aminopeptidase (Sus scrofa, UniProt P28839); assay: Detector peptide as enzyme substrate, leucine aminopeptidase; assay type: biochemical
Excerpt: as §9

[13] = molecular target: T1, trypsin (Bos taurus, UniProt P00760); assay: Detector peptide as enzyme substrate, trypsin; assay type: biochemical
T1 construct: gene PRSS1
T1 sequence (P00760 24-246): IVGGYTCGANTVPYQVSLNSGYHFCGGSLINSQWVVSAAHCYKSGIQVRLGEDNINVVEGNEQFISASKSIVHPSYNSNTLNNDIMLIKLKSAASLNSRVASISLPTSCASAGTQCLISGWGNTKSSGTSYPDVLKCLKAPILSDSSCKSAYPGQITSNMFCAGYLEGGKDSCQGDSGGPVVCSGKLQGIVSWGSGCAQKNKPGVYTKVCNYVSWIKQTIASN
Excerpt: as §9

Chain of aminopeptidase M (P15144 whole entry, species assumed): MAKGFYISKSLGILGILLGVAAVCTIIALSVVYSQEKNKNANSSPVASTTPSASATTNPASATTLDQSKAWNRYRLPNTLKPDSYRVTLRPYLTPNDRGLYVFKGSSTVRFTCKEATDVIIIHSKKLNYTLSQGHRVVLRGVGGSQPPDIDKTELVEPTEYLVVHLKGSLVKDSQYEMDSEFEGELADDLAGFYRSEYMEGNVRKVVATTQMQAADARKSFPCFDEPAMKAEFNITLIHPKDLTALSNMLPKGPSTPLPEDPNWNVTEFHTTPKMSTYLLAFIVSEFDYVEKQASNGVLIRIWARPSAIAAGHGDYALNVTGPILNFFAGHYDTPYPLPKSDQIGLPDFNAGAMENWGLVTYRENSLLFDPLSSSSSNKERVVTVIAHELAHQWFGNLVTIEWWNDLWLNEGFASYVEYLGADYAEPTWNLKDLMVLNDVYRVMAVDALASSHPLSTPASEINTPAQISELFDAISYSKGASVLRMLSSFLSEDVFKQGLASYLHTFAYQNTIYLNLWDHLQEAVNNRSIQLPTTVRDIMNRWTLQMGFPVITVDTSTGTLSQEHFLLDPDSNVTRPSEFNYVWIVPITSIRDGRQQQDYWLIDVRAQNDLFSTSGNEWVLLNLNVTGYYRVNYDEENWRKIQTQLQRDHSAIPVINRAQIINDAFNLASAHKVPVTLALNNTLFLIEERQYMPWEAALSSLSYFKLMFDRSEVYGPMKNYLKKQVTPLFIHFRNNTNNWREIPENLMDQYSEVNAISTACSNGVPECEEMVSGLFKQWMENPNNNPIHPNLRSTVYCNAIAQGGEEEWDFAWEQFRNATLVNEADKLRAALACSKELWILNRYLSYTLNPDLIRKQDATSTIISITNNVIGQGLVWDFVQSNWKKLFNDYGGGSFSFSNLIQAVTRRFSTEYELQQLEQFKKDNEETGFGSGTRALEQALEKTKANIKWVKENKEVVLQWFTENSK
Chain of leucine aminopeptidase (P28839 whole entry): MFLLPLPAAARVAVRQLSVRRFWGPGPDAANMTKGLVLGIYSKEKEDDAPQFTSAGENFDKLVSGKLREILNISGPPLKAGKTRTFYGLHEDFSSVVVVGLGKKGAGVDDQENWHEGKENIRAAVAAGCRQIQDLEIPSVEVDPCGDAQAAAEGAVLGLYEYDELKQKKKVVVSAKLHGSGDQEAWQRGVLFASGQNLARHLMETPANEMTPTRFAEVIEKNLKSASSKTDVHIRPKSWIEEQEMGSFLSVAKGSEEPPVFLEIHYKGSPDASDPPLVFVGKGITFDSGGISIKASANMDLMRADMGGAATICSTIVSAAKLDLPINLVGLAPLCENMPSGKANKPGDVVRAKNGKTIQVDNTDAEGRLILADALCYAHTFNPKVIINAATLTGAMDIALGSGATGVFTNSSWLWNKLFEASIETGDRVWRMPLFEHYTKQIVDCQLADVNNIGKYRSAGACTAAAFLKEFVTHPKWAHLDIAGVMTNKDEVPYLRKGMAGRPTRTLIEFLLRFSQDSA

## O=c1[nH]cc(F)c(=O)[nH]1 [Example 5-FU, 5-fluorouracil, reference compound]
[1]; Candida albicans, C. albicans strain 3153A, read-out: MIC
  MIC: 1 µg/mL (≈ 7.69 µM)
[1]; Candida albicans, C. albicans strain B 311, read-out: MIC
  MIC: 4 µg/mL (≈ 30.8 µM)
[1]; Candida albicans, C. albicans strain BC 759, read-out: MIC
  MIC: 1 µg/mL (≈ 7.69 µM)
[2]; Conc. 1.5 μg/desk
  zone (Test A, disk diffusion; quantity not given): 22 mm
[2]; Conc. 3.0 μg/desk
  zone (Test A, disk diffusion; quantity not given): 30 mm
[2]; Conc. 6.0 μg/desk
  zone (Test A, disk diffusion; quantity not given): 30 mm
[2]; Conc. 12.5 μg/desk
  zone (Test A, disk diffusion; quantity not given): 40 mm
[2]; Conc. 25 μg/desk
  zone (Test A, disk diffusion; quantity not given): 44 mm
[3]; conc. 1.5 μg/disk
  zone of inhibition at 1.5 µg/disc: 33 mm
[3]; conc. 3.0 μg/disk
  zone of inhibition at 3 µg/disc: 38 mm
[3]; conc. 6.0 μg/disk
  zone of inhibition at 6 µg/disc: 40 mm
[3]; conc. 12.5 μg/disk
  zone of inhibition at 12.5 µg/disc: 41 mm
[3]; conc. 25.0 μg/disk
  zone of inhibition at 25 µg/disc: 46 mm

## C[C@H](N)C(=O)NC(C(=O)O)n1cc(F)c(=O)[nH]c1=O (stereo partly drawn) [L-alanyl-2-(5-fluorouracil-1-yl)-D-glycine]
[1]; C. albicans B-310, 24 hours
  MIC: > 200 µg/mL
[1]; C. albicans strain 3153A, listed as L-D
  MIC: > 100 µg/mL
[1]; C. albicans strain B 311, listed as L-D
  MIC: > 100 µg/mL
[1]; C. albicans strain BC 759, listed as L-D
  MIC: > 100 µg/mL
[2]; Conc. 1.5 μg/desk, listed as L,D
  zone (Test A, disk diffusion; quantity not given): 0 mm
[2]; Conc. 3.0 μg/desk, listed as L,D
  zone (Test A, disk diffusion; quantity not given): 0 mm
[2]; Conc. 6.0 μg/desk, listed as L,D
  zone (Test A, disk diffusion; quantity not given): 0 mm
[2]; Conc. 12.5 μg/desk, listed as L,D
  zone (Test A, disk diffusion; quantity not given): 0 mm
[2]; Conc. 25 μg/desk, listed as L,D
  zone (Test A, disk diffusion; quantity not given): 0 mm
[2]; 62 μg/ml
  zone size: 0 mm
[2]; 125 μg/ml
  zone size: 0 mm
[2]; 250 μg/ml
  zone size: 0 mm
[2]; 500 μg/ml
  zone size: 0 mm
[2]; 1000 μg/ml
  zone size: 0 mm

## L-alanyl-2-(albendazole)-D,L-glycine [Example 22]
[4]
  antiparasitic activity: comparable to, or greater than, albendazole
[5]
  antiparasitic activity: comparable to, or greater than, albendazole
[6]
  nematostatic activity: nematostatic activity was demonstrated

## C[C@H](N)C(=O)NC(NNS(=O)(=O)c1cc(C(=O)O)cc(C(=O)O)c1)C(=O)O (stereo partly drawn) [Example 12, L-alanyl-2-(3,5-dicarboxy-phenylsulfohydrazino)-D,L-glycine]
[7]
  activity in the biological screen: not active

## C[C@H](N)C(=O)NC(C(=O)O)n1cc(F)c(=O)[nH]c1=O (mixture of isomers) [Example 2, L-alanyl-2-(5-fluorouracil-1-yl)-D,L-glycine]
[1]; C. albicans strain 3153A, listed as L-DL
  MIC: 25 µg/mL
[1]; C. albicans strain B 311, listed as L-DL
  MIC: 25 µg/mL
[1]; C. albicans strain BC 759, listed as L-DL
  MIC: 6.3 µg/mL
[2]; Conc. 1.5 μg/desk, listed as L-DL
  zone (Test A, disk diffusion; quantity not given): 12 mm
[2]; Conc. 3.0 μg/desk, listed as L-DL
  zone (Test A, disk diffusion; quantity not given): 18 mm
[2]; Conc. 6.0 μg/desk, listed as L-DL
  zone (Test A, disk diffusion; quantity not given): 20 mm
[2]; Conc. 12.5 μg/desk, listed as L-DL
  zone (Test A, disk diffusion; quantity not given): 20 mm
[2]; Conc. 25 μg/desk, listed as L-DL
  zone (Test A, disk diffusion; quantity not given): 20 mm

## L-alanyl-2-(2,6-dicarboxy-pyridyl-4-)-ethylthio-D,L-glycine [Example 4]
[8]; 1 mM peptide, phosphate buffer 4 mM pH 7, 100 μg leucine aminopeptidase
  Rate plus 100 μg enzyme (warhead release): 504 p moles per min
[8]; Time (sec) 3, 1 mM peptide, phosphate buffer pH 7
  λ(412) absorbance: 0.109
[8]; Time (sec) 4
  λ(412) absorbance: 0.127
[8]; Time (sec) 5
  λ(412) absorbance: 0.142
[8]; Time (sec) 6
  λ(412) absorbance: 0.161
[8]; Time (sec) 7
  λ(412) absorbance: 0.180
[8]; Time (sec) 8
  λ(412) absorbance: 0.199
[8]; phosphate buffer pH 7.0, observation period 5 min
  warhead release upon addition of Leucine Aminopeptidase: the warhead was released
[9]
  enzymatically catalyzed release rate relative to pH 7.0: twice the previous rate
[10]; 1 mM peptide, phosphate buffer 4 mM pH 7, no enzyme
  Spontaneous Rate (warhead release): 65 p moles per min
[10]; 0.2 M phosphate buffer (pH 7.0)
  t 1/2 (stability): ~ 5000 min
[10]; Time (sec) 0, 1 mM peptide, Ellman's reagent 4 mg/ml, phosphate buffer 4 mM pH 7
  λ(412) absorbance: 0.090
[10]; Time (sec) 1, 1 mM peptide, phosphate buffer pH 7
  λ(412) absorbance: 0.093
[10]; Time (sec) 2, 1 mM peptide, phosphate buffer pH 7
  λ(412) absorbance: 0.095
[10]; pH 7.5, compared with pH 7.0
  non-enzymatic warhead release: no noticeable increase

## C[C@H](N)C(=O)NC(Sc1ccccc1)C(=O)O (stereo partly drawn) [L-alanyl-L-(α-phenylthio)glycine]
[11]
  use as enzyme substrate: successfully used as enzyme substrates
[12]
  use as enzyme substrate: successfully used as enzyme substrates

## C[C@H](N)C(=O)N[C@H](C(=O)O)n1cc(F)c(=O)[nH]c1=O [L-alanyl-2-(5-fluorouracil-1-yl)-L-glycine]
[1]; C. albicans B-310, 24 hours
  MIC: 12.5 µg/mL (≈ 45.6 µM)
[1]; C. albicans strain 3153A
  MIC: 12.5 µg/mL (≈ 45.6 µM)
[1]; C. albicans strain B 311
  MIC: 12.5 µg/mL (≈ 45.6 µM)
[1]; C. albicans strain BC 759
  MIC: 1.6 µg/mL (≈ 5.83 µM)
[2]; Conc. 1.5 μg/desk
  zone (Test A, disk diffusion; quantity not given): 16 mm
[2]; Conc. 3.0 μg/desk
  zone (Test A, disk diffusion; quantity not given): 20 mm
[2]; Conc. 6.0 μg/desk
  zone (Test A, disk diffusion; quantity not given): 22 mm
[2]; Conc. 12.5 μg/desk
  zone (Test A, disk diffusion; quantity not given): 26 mm
[2]; Conc. 25 μg/desk
  zone (Test A, disk diffusion; quantity not given): 30 mm
[2]; 62 μg/ml
  zone size: 16 mm
[2]; 125 μg/ml
  zone size: 20 mm
[2]; 250 μg/ml
  zone size: 22 mm
[2]; 500 μg/ml
  zone size: 26 mm
[2]; 1000 μg/ml
  zone size: 30 mm

## N-carbobenzoxy-L-alanyl-D,L-2-(3-aminopropylthio)-glycine, benzyl ester [Example 23]
[13]
  substrate for trypsin: shown to be substrates
